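Protocol summary: plate cells (96-well), add compound at 5 concentrations, incubate 48 h, interpolate endpoints linearly. GI50 marks 50% less growth.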 Calls of active or inactive are those of the source. No stated cut-off is given here; in the data, active = GI50 up to about 1.1 µM and inactive = higher.
Assays:
Experiment in all cases: NCI tumour cell line growth inhibition, 48 h
A498 = tested on: A498
SF-268 = tested on: SF-268
UO-31 = tested on: UO-31
HCT-15 = tested on: HCT-15
HCT-116 = tested on: HCT-116
786-0 = tested on: 786-0
OVCAR-5 = tested on: OVCAR-5
COLO 205 = tested on: COLO 205
EKVX = tested on: EKVX
IGROV-1 = tested on: IGROV-1
HOP-62 = tested on: HOP-62
RXF 393 = tested on: RXF 393
NCI/ADR-RES = tested on: NCI/ADR-RES
MOLT-4 = tested on: MOLT-4
CAKI-1 = tested on: CAKI-1
UACC-62 = tested on: UACC-62
NCI-H522 = tested on: NCI-H522
ACHN = tested on: ACHN
MDA-MB-435 = tested on: MDA-MB-435
NCI-H226 = tested on: NCI-H226

SMILES	GI50 (A498)	GI50 (SF-268)	GI50 (UO-31)	GI50 (HCT-15) [µM]	GI50 (HCT-116)	GI50 (786-0)	GI50 (OVCAR-5)	GI50 (COLO 205)	GI50 (EKVX)	GI50 (IGROV-1)	GI50 (HOP-62)	GI50 (RXF 393)	GI50 (NCI/ADR-RES)	GI50 (MOLT-4)	GI50 (CAKI-1)	GI50 (UACC-62)	GI50 (NCI-H522)	GI50 (ACHN)	GI50 (MDA-MB-435)	GI50 (NCI-H226)
O=C1N/C(=N\N=C\c2ccccc2)C2(CCCCC2)O1	> 100 µM (inactive)	> 100 µM (inactive)	43.1 µM (inactive)	46.9	59.2 µM (inactive)	64.9 µM (inactive)	> 100 µM (inactive)	93.1 µM (inactive)	> 100 µM (inactive)	> 100 µM (inactive)	83.4 µM (inactive)	> 100 µM (inactive)	42.5 µM (inactive)	39.3 µM (inactive)	84.9 µM (inactive)	> 100 µM (inactive)	> 100 µM (inactive)	> 100 µM (inactive)	> 100 µM (inactive)	44.5 µM (inactive)
COC(=O)/C=C1\C(=O)N(C(C)=O)c2ccc(Br)cc21	21.9 µM (inactive)	7.46 µM (inactive)	0.69 µM (active)	6.75	6.92 µM (inactive)	5.46 µM (inactive)	17.3 µM (inactive)	13.7 µM (inactive)	15.2 µM (inactive)	7.6 µM (inactive)	13.2 µM (inactive)	7.46 µM (inactive)	11.7 µM (inactive)	3.03 µM (inactive)	21.3 µM (inactive)	11.6 µM (inactive)	3.73 µM (inactive)	11.6 µM (inactive)	9.35 µM (inactive)	15.1 µM (inactive)
NC(=S)N/N=C1\CCCC1C(O)(C(F)(F)Cl)C(F)(F)Cl (stereo not given)	> 10 µM (inactive)	> 10 µM (inactive)	–	> 10	> 10 µM (inactive)	> 10 µM (inactive)	> 10 µM (inactive)	> 10 µM (inactive)	> 10 µM (inactive)	> 10 µM (inactive)	> 10 µM (inactive)	> 10 µM (inactive)	> 10 µM (inactive)	> 10 µM (inactive)	> 10 µM (inactive)	8.63 µM (inactive)	> 10 µM (inactive)	> 10 µM (inactive)	> 10 µM (inactive)	> 10 µM (inactive)
Cn1cnc([N+](=O)[O-])c1Sc1nnc(-c2cccnc2)n1C	> 79.1 µM (inactive)	36.2 µM (inactive)	32.4 µM (inactive)	17.2	18.4 µM (inactive)	18.5 µM (inactive)	67.3 µM (inactive)	15.3 µM (inactive)	38.2 µM (inactive)	68.5 µM (inactive)	> 91.6 µM (inactive)	7.83 µM (inactive)	46.6 µM (inactive)	18.2 µM (inactive)	25.4 µM (inactive)	17.3 µM (inactive)	5.78 µM (inactive)	17.1 µM (inactive)	14.9 µM (inactive)	> 66.4 µM (inactive)
S=c1[nH]nc(Cn2c3ccc(Br)cc3c3nc4ccccc4nc32)o1	43.9 µM (inactive)	> 60.5 µM (inactive)	16.3 µM (inactive)	1.06	28.3 µM (inactive)	34.3 µM (inactive)	> 84.5 µM (inactive)	46.9 µM (inactive)	71.6 µM (inactive)	31.9 µM (inactive)	29.9 µM (inactive)	14.8 µM (inactive)	74.5 µM (inactive)	27.1 µM (inactive)	41.6 µM (inactive)	27.5 µM (inactive)	20.2 µM (inactive)	39.6 µM (inactive)	16.7 µM (inactive)	> 77.3 µM (inactive)
CNC(=S)N/N=C(\C)c1ccc(OC)cc1O	95.7 µM (inactive)	> 100 µM (inactive)	> 100 µM (inactive)	16	> 100 µM (inactive)	> 100 µM (inactive)	> 100 µM (inactive)	0.258 µM (active)	82.6 µM (inactive)	22.5 µM (inactive)	> 100 µM (inactive)	> 100 µM (inactive)	28.8 µM (inactive)	3.33 µM (inactive)	> 100 µM (inactive)	> 100 µM (inactive)	2.72 µM (inactive)	> 100 µM (inactive)	> 100 µM (inactive)	73.8 µM (inactive)
O=C1Nc2ccccc2/C1=C\c1c(Cl)[nH]c2ccccc12	1.15 µM (inactive)	1.12 µM (active)	1.66 µM (inactive)	0.608	0.745 µM (active)	0.935 µM (active)	1.44 µM (inactive)	0.288 µM (active)	1.06 µM (active)	0.139 µM (active)	0.787 µM (active)	0.869 µM (active)	0.355 µM (active)	0.522 µM (active)	0.537 µM (active)	1.05 µM (active)	0.736 µM (active)	1.3 µM (inactive)	0.208 µM (active)	3.65 µM (inactive)
Cn1c(CCC2(C)Cc3ccccc3C(=O)O2)cc2ccccc2c1=O (stereo not given)	25.1 µM (inactive)	–	15.7 µM (inactive)	33.7	–	96.6 µM (inactive)	32.8 µM (inactive)	27.1 µM (inactive)	–	27.3 µM (inactive)	18.5 µM (inactive)	10.2 µM (inactive)	26.3 µM (inactive)	> 10 µM (inactive)	13.9 µM (inactive)	> 10 µM (inactive)	16.4 µM (inactive)	–	19.4 µM (inactive)	22 µM (inactive)
CCOC(=O)c1cccc(NC(=O)CI)c1	2.07 µM (inactive)	0.67 µM (active)	0.189 µM (active)	0.336	0.301 µM (active)	0.169 µM (active)	1.64 µM (inactive)	0.531 µM (active)	1.93 µM (inactive)	0.338 µM (active)	1.36 µM (inactive)	1.36 µM (inactive)	0.5 µM (active)	0.0284 µM (active)	0.55 µM (active)	0.575 µM (active)	0.179 µM (active)	0.682 µM (active)	0.263 µM (active)	0.601 µM (active)
CCC(=O)OCOc1ccc(/C=C2\CCC(CN(C)C)C2=O)cc1 (stereo not given)	15.9 µM (inactive)	8.59 µM (inactive)	7.8 µM (inactive)	3.13	2.74 µM (inactive)	2.45 µM (inactive)	16.8 µM (inactive)	3.78 µM (inactive)	14 µM (inactive)	6.44 µM (inactive)	15.2 µM (inactive)	3.44 µM (inactive)	2.96 µM (inactive)	2.51 µM (inactive)	4.67 µM (inactive)	4.1 µM (inactive)	1.93 µM (inactive)	7.73 µM (inactive)	3.34 µM (inactive)	13.8 µM (inactive)
COC(=O)Nc1nc2cc(S(=O)(=O)N3CCOCC3)ccc2[nH]1	> 100 µM (inactive)	> 100 µM (inactive)	> 100 µM (inactive)	> 100	> 100 µM (inactive)	> 100 µM (inactive)	> 100 µM (inactive)	> 100 µM (inactive)	> 100 µM (inactive)	> 100 µM (inactive)	91.8 µM (inactive)	> 100 µM (inactive)	> 100 µM (inactive)	94.4 µM (inactive)	> 100 µM (inactive)	> 100 µM (inactive)	> 100 µM (inactive)	> 100 µM (inactive)	26.4 µM (inactive)	> 100 µM (inactive)
COc1ccc(NC(=O)CC(=O)N2N=C(c3ccccc3)C(/N=N/c3ccc(S(=O)(=O)CCOS(=O)(=O)O)cc3)C2=O)cc1 (stereo not given)	> 100 µM (inactive)	> 100 µM (inactive)	> 100 µM (inactive)	> 100	> 100 µM (inactive)	> 100 µM (inactive)	–	> 100 µM (inactive)	> 100 µM (inactive)	> 100 µM (inactive)	> 100 µM (inactive)	> 100 µM (inactive)	> 100 µM (inactive)	> 100 µM (inactive)	> 100 µM (inactive)	> 100 µM (inactive)	> 100 µM (inactive)	> 100 µM (inactive)	> 100 µM (inactive)	> 100 µM (inactive)
CCOP(=O)(/C=C\n1cc(C)c(=O)[nH]c1=O)OCC	> 100 µM (inactive)	> 100 µM (inactive)	–	> 100	> 100 µM (inactive)	> 100 µM (inactive)	> 100 µM (inactive)	> 100 µM (inactive)	> 100 µM (inactive)	> 100 µM (inactive)	> 100 µM (inactive)	> 100 µM (inactive)	> 100 µM (inactive)	> 100 µM (inactive)	> 100 µM (inactive)	> 100 µM (inactive)	12.1 µM (inactive)	> 100 µM (inactive)	> 100 µM (inactive)	> 100 µM (inactive)
c1ccc(-c2nnn(CCN3CCCCC3)n2)cc1	> 100 µM (inactive)	> 100 µM (inactive)	> 100 µM (inactive)	> 100	> 100 µM (inactive)	> 100 µM (inactive)	> 100 µM (inactive)	> 100 µM (inactive)	96.6 µM (inactive)	> 100 µM (inactive)	> 100 µM (inactive)	> 100 µM (inactive)	> 100 µM (inactive)	–	> 100 µM (inactive)	> 100 µM (inactive)	> 100 µM (inactive)	> 100 µM (inactive)	> 100 µM (inactive)	> 100 µM (inactive)
CSc1c(C#N)c(N)n(-c2ccc(Cl)cc2)c(=O)c1C#N	> 100 µM (inactive)	> 100 µM (inactive)	> 100 µM (inactive)	> 100	> 100 µM (inactive)	> 100 µM (inactive)	> 100 µM (inactive)	> 100 µM (inactive)	> 100 µM (inactive)	> 100 µM (inactive)	–	> 100 µM (inactive)	> 100 µM (inactive)	61.4 µM (inactive)	> 100 µM (inactive)	> 100 µM (inactive)	27.5 µM (inactive)	–	> 100 µM (inactive)	59.7 µM (inactive)

Reference: ChEMBL document CHEMBL1201862, “PubChem BioAssay data set” (2004)
